{"source": "patent US20220202885A1", "about": "“ONCOLYTIC VIRUS WITH IMPROVED SAFETY AND […]” (BIONOXX INC., priority 2019, published 2022)", "key": {"[1]": {"system": "mouse colorectal cancer cell line (CT-26) allograft", "assay": "Tumor volume in mouse colorectal cancer cell line-transplanted mice (Example 13.2)", "type": "in vivo", "conditions": "CT-26 allograft Balb/c mice; WOTS-418 1×10^8 pfu i.p. D0, D3 and 1×10^7 pfu i.t. D14, D21; hydroxyurea 30 mg/kg i.p. once a day"}, "[2]": {"system": "human breast cancer cell line (MDA-MB-231) xenograft", "assay": "Tumor volume in human breast cancer cell line-transplanted mice (Example 11)", "type": "in vivo, mouse", "conditions": "MDA-MB-231 xenograft Balb/c nu/nu mice"}, "[3]": {"system": "CD8+ T cells secreting IFN-γ", "type": "in vivo, mouse", "conditions": "CT-26 allograft Balb/c mice; same doses and regimens as tumor volume test; co-culture with CT-26 cells"}}, "data": [{"substance": "hydroxyurea", "values": [{"measurement": "tumor volume on day 25 compared with the control group", "setting": "[1]", "value": "suppressed tumor volume"}, {"measurement": "tumor volume on day 31 relative to the initial tumor volume", "setting": "[2]; HU 30 mg/kg i.p. twice a day, day 31", "value": "≥ 5", "unit": "fold"}, {"measurement": "tumor growth (tumor volume measured for 31 days)", "setting": "[2]; WOTS-418 1×10^7 pfu (D0 i.p., D10 i.t.), hydroxyurea 30 mg/kg i.p. twice a day", "value": "tumor growth was not inhibited"}, {"measurement": "CD8+ T cells secreting IFN-γ among spleen CD8+ T cells, compared with control mice (ELISPOT)", "setting": "[3]", "value": "abundant"}]}]}
